Tests used:
[1] = xn = mol fraction of the nth substance listed; conditions: 100 kPa, Liquid; for speed of sound: Frequency=3 MHz, Sing-around technique in a fixed-path interferometer; for mass density: Vibrating tube method
[2] = refractive index (Na D-line) (dimensionless); xn = mol fraction of the nth substance listed; conditions: 100 kPa, Liquid, Standard Abbe refractometry

C=CN1CCCC1=O [N-vinylpyrrolidone] + CCCCn1cc[n+](C)c1.F[B-](F)(F)F
Conditions	mass density, [1] [kg/m3]	refractive index, [2]	speed of sound, [1] [m/s]
298.15 K, x2 = 0	1039.36	1.51119	1521.5
298.15 K, x2 = 0.1046	1069.96	1.4987	1537.3
298.15 K, x2 = 0.2035	1093.11	1.48698	1546
298.15 K, x2 = 0.3042	1113.53	1.47636	1552.7
298.15 K, x2 = 0.406	1131.03	1.46672	1557.8
298.15 K, x2 = 0.4945	1144.21	1.45868	1560.6
298.15 K, x2 = 0.607	1159.22	1.44913	1563.2
298.15 K, x2 = 0.697	1170.1	1.44241	1564.4
298.15 K, x2 = 0.7828	1179.78	–	1565.8
298.15 K, x2 = 0.9104	1191.59	1.42725	1566.1
303.15 K, x2 = 0	1034.95	1.50886	1502.5
303.15 K, x2 = 0.1046	1065.76	1.49659	1519.9
303.15 K, x2 = 0.2035	1089.01	1.48494	1529.6
303.15 K, x2 = 0.3042	1109.53	1.4745	1537.2
303.15 K, x2 = 0.406	1127.12	1.4648	1543
303.15 K, x2 = 0.4945	1140.37	1.45699	1546.2
303.15 K, x2 = 0.607	1155.45	1.44651	1549.5
303.15 K, x2 = 0.697	1166.39	1.44097	1551.4
303.15 K, x2 = 0.7828	1176.14	1.43197	1553
303.15 K, x2 = 0.9104	1187.99	1.42592	1553.9
308.15 K, x2 = 0	1030.55	1.5065	1483.7
308.15 K, x2 = 0.1046	1061.54	1.49444	1502.4
308.15 K, x2 = 0.2035	1084.92	1.48295	1513
308.15 K, x2 = 0.3042	1105.54	1.47251	1521.5
308.15 K, x2 = 0.406	1123.22	1.46308	1528
308.15 K, x2 = 0.4945	1136.54	1.45534	1532.1
308.15 K, x2 = 0.607	1151.7	1.44502	1535.8
308.15 K, x2 = 0.697	1162.69	1.43944	1538.3
308.15 K, x2 = 0.7828	1172.5	1.43065	1540.6
308.15 K, x2 = 0.9104	1184.4	1.42459	1542.1
313.15 K, x2 = 0	1026.14	1.50415	1465
313.15 K, x2 = 0.1046	1057.33	1.49224	1485
313.15 K, x2 = 0.2035	1080.83	1.48108	1496.5
313.15 K, x2 = 0.3042	1101.56	1.47065	1505.9
313.15 K, x2 = 0.406	1119.32	1.46137	1513.2
313.15 K, x2 = 0.4945	1132.74	1.45369	1517.9
313.15 K, x2 = 0.607	1147.96	1.44349	1522.3
313.15 K, x2 = 0.697	1159.01	1.43784	1525.3
313.15 K, x2 = 0.7828	1168.89	1.42937	1528.1
313.15 K, x2 = 0.9104	1180.83	1.42327	1530.1
318.15 K, x2 = 0	1021.73	1.50181	1446.5
318.15 K, x2 = 0.1046	1053.13	1.49001	1467.7
318.15 K, x2 = 0.2035	1076.75	1.47899	1480.3
318.15 K, x2 = 0.3042	1097.59	1.46886	1490.4
318.15 K, x2 = 0.406	1115.44	1.45957	1498.5
318.15 K, x2 = 0.4945	1128.96	1.45198	1503.9
318.15 K, x2 = 0.607	1144.25	1.44199	1509
318.15 K, x2 = 0.697	1155.36	1.43632	1512.5
318.15 K, x2 = 0.7828	1165.3	1.42834	1515.7
318.15 K, x2 = 0.9104	1177.29	1.42194	1518.3
323.15 K, x2 = 0	1017.33	1.49948	1428.1
323.15 K, x2 = 0.1046	1048.93	1.4878	1450.6
323.15 K, x2 = 0.2035	1072.68	1.47691	1464.1
323.15 K, x2 = 0.3042	1093.63	1.46692	1475.1
323.15 K, x2 = 0.406	1111.58	1.45773	1483.9
323.15 K, x2 = 0.4945	1125.2	1.45015	1489.9
323.15 K, x2 = 0.607	1140.57	1.44042	1495.7
323.15 K, x2 = 0.697	1151.73	1.43462	1499.8
323.15 K, x2 = 0.7828	1161.76	1.42708	1503.5
323.15 K, x2 = 0.9104	1173.77	1.42061	1506.7

Reference: the NIST ThermoML archive (doi:10.1021/je500936y)
